Counter-ions that a name gives are not always drawn.
Target: interaction between p53 and MDM2 proteins (recombinant GST-tagged MDM2) (Homo sapiens, UniProt Q00987)
Assay: HTRF assay of inhibition of the p53-MDM2 interaction (GST-MDM2 / biotinylated p53 peptide);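 note: FRET read-out from Eu-labelled anti-GST antibody to streptavidin-APC, with 90 nM N-terminally biotinylated p53 peptide and 160 ng/ml GST-MDM2 in Tris-borate saline containing 1 mM DTT, 384-well format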
Format: binding
Conditions: HTRF, 0.02% BSA, 37° C. 1 h
Method: The ability of the compounds to inhibit the interaction between p53 and MDM2 proteins was measured by an HTRF (homogeneous time-resolved fluorescence) assay in which recombinant GST-tagged MDM2 binds to a peptide that resembles the MDM2-interacting region of p53 (Lane et al.). Binding of GST-MDM2 protein and p53-peptide (biotinylated on its N-terminal end) is registered by the FRET (fluorescence resonance energy transfer) between Europium (Eu)-labeled anti-GST antibody and streptavidin-conjugated Allophycocyanin (APC).
Test is performed in black flat-bottom 384-well plates (Costar) in a total volume of 40 uL containing: 90 nM biotinylate peptide, 160 ng/ml GST-MDM2, 20 nM streptavidin-APC (PerkinElmerWallac), 2 nM Eu-labeled anti-GST-antibody (PerkinElmerWallac), 0.02% bovine serum albumin (BSA), 1 mM dithiothreitol (DTT) and 20 mM Tris-borate saline (TBS) buffer as follows: Add 10 uL of GST-MDM2 (640 ng/ml working solution) in reaction buffer to each well. […] Incubate at 37° C. for 1 h.

interaction between p53 and MDM2 proteins (recombinant GST-tagged MDM2), sequence (Q00987 whole entry): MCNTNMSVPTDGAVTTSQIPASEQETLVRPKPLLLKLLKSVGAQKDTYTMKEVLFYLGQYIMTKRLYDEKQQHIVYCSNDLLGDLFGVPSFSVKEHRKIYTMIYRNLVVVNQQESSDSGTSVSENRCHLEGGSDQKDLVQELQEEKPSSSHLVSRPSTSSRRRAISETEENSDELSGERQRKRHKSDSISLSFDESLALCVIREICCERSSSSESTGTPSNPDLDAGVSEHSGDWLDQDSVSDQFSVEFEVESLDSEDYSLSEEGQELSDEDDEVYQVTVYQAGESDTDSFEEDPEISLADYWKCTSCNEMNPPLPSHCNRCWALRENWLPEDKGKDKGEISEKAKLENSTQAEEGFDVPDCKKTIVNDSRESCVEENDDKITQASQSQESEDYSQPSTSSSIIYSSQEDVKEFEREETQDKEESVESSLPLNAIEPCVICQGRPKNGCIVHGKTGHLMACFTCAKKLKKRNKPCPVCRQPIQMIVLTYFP

Structure (SMILES)	IC50 [µM]
COc1cc(C(=O)OCCOCCOCCOCCOCCO)ccc1NC(=O)[C@@H]1N[C@@H](CC(C)(C)C)[C@](C#N)(c2ccc(Cl)cc2F)[C@H]1c1cccc(Cl)c1F [Example 50, 4-{[(2R,3S,4R,5S)-4-(4-Chloro-2-fluoro-phenyl)-3-(3-chloro-2-fluoro-phenyl)-4-cyano-5-(2,2-dimethyl-propyl)-pyrrolidine-2-carbonyl]-amino}-3-methoxy-benzoic acid 2-(2-{2-[2-(2-hydroxy-ethoxy)-ethoxy]-ethoxy}-ethoxy)-ethyl ester, hydrochloride]	0.00913
COc1cc(C(=O)OCC(=O)NCC2COC(C)(C)O2)ccc1NC(=O)[C@@H]1N[C@@H](CC(C)(C)C)[C@](C#N)(c2ccc(Cl)cc2F)[C@H]1c1cccc(Cl)c1F (stereo partly drawn) [Example 67, 4-{[(2R,3S,4R,5S)-4-(4-Chloro-2-fluoro-phenyl)-3-(3-chloro-2-fluoro-phenyl)-4-cyano-5-(2,2-dimethyl-propyl)-pyrrolidine-2-carbonyl]-amino}-3-methoxy-benzoic acid [(2,2-dimethyl-[1,3]dioxolan-4-ylmethyl)-carbamoyl]-methyl ester]	0.0118
COc1cc(C(=O)OCCC(=O)O)ccc1NC(=O)[C@@H]1N[C@@H](CC(C)(C)C)[C@](C#N)(c2ccc(Cl)cc2F)[C@H]1c1cccc(Cl)c1F [Example 38, 4-{[(2R,3S,4R,5S)-4-(4-Chloro-2-fluoro-phenyl)-3-(3-chloro-2-fluoro-phenyl)-4-cyano-5-(2,2-dimethyl-propyl)-pyrrolidine-2-carbonyl]-amino}-3-methoxy-benzoic acid 2-carboxy-ethyl ester]	0.0102
COc1cc(C(=O)OCC(CO)CO)ccc1NC(=O)[C@@H]1N[C@@H](CC(C)(C)C)[C@](C#N)(c2ccc(Cl)cc2F)[C@H]1c1cccc(Cl)c1F [Example 9, 3-Hydroxy-2-(hydroxymethyl)propyl 4-((2R,3S,4R,5S)-3-(3-chloro-2-fluorophenyl)-4-(4-chloro-2-fluorophenyl)-4-cyano-5-neopentylpyrrolidine-2-carboxamido)-3-methoxybenzoate]	0.012
COc1cc(C(=O)O[C@@H]2O[C@H](C(=O)O)[C@@H](O)[C@H](O)[C@H]2O)ccc1NC(=O)[C@@H]1N[C@@H](CC(C)(C)C)[C@](C#N)(c2ccc(Cl)cc2F)[C@H]1c1cccc(Cl)c1F [Example 40, (2S,3S,4S,5R,6S)-6-(4-{[(2R,3S,4R,5S)-4-(4-Chloro-2-fluoro-phenyl)-3-(3-chloro-2-fluoro-phenyl)-4-cyano-5-(2,2-dimethyl-propyl)-pyrrolidine-2-carbonyl]-amino}-3-methoxy-benzoyloxy)-3,4,5-trihydroxy-tetrahydro-pyran-2-carboxylic acid; compound with trifluoro-acetic acid]	0.0062
COc1cc(C(=O)NCCOCCOCCOCCNC(=O)c2ccc(NC(=O)[C@@H]3N[C@@H](CC(C)(C)C)[C@](C#N)(c4ccc(Cl)cc4F)[C@H]3c3cccc(Cl)c3F)c(OC)c2)ccc1NC(=O)[C@@H]1N[C@@H](CC(C)(C)C)[C@](C#N)(c2ccc(Cl)cc2F)[C@H]1c1cccc(Cl)c1F [Example 76, (2R,3S,4R,5S)-4-(4-Chloro-2-fluoro-phenyl)-3-(3-chloro-2-fluoro-phenyl)-4-cyano-5-(2,2-dimethyl-propyl)-pyrrolidine-2-carboxylic acid [4-(2-{2-[2-(2-amino-ethoxy)-ethoxy]-ethoxy}-ethylcarbamoyl)-2-methoxy-phenyl]-amide, dimer]	0.0643
COc1cc(C(=O)OCC(=O)N[C@@H](CCC(=O)O)C(=O)O)ccc1NC(=O)[C@@H]1N[C@@H](CC(C)(C)C)[C@](C#N)(c2ccc(Cl)cc2F)[C@H]1c1cccc(Cl)c1F [Example 71, (S)-2-[2-(4-{[(2R,3S,4R,5S)-4-(4-Chloro-2-fluoro-phenyl)-3-(3-chloro-2-fluoro-phenyl)-4-cyano-5-(2,2-dimethyl-propyl)-pyrrolidine-2-carbonyl]-amino}-3-methoxy-benzoyloxy)-acetylamino]-pentanedioic acid]	0.00594
COc1cc(C(=O)OCC(=O)NCC(O)CO)ccc1NC(=O)[C@@H]1N[C@@H](CC(C)(C)C)[C@](C#N)(c2ccc(Cl)cc2F)[C@H]1c1cccc(Cl)c1F (stereo partly drawn) [Example 68, 4-{[(2R,3S,4R,5S)-4-(4-Chloro-2-fluoro-phenyl)-3-(3-chloro-2-fluoro-phenyl)-4-cyano-5-(2,2-dimethyl-propyl)-pyrrolidine-2-carbonyl]-amino}-3-methoxy-benzoic acid (2,3-dihydroxy-propylcarbamoyl)-methyl ester]	0.012
COc1cc(C(=O)OCCOC(=O)[C@@H](NC(=O)[C@H](C)N(C)C(=O)OC(C)(C)C)C(C)C)ccc1NC(=O)[C@@H]1N[C@@H](CC(C)(C)C)[C@](C#N)(c2ccc(Cl)cc2F)[C@H]1c1cccc(Cl)c1F [Example 33, 4-{[(2R,3S,4R,5S)-4-(4-Chloro-2-fluoro-phenyl)-3-(3-chloro-2-fluoro-phenyl)-4-cyano-5-(2,2-dimethyl-propyl)-pyrrolidine-2-carbonyl]-amino}-3-methoxy-benzoic acid 2-[(S)-3-methyl-2-((S)-2-tert-butoxycarbonyl-methylamino-propionylamino)-butyryloxy]-ethyl ester]	0.0199
COc1cc(C(=O)OCC(N)=O)ccc1NC(=O)[C@@H]1N[C@@H](CC(C)(C)C)[C@](C#N)(c2ccc(Cl)cc2F)[C@H]1c1cccc(Cl)c1F [Example 65, 4-{[(2R,3S,4R,5S)-4-(4-Chloro-2-fluoro-phenyl)-3-(3-chloro-2-fluoro-phenyl)-4-cyano-5-(2,2-dimethyl-propyl)-pyrrolidine-2-carbonyl]-amino}-3-methoxy-benzoic acid carbamoylmethyl ester]	0.0129
COc1cc(C(=O)OCC2CCN(C)CC2)ccc1NC(=O)[C@@H]1N[C@@H](CC(C)(C)C)[C@](C#N)(c2ccc(Cl)cc2F)[C@H]1c1cccc(Cl)c1F [Example 18, 4-{[(2R,3S,4R,5S)-4-(4-Chloro-2-fluoro-phenyl)-3-(3-chloro-2-fluoro-phenyl)-4-cyano-5-(2,2-dimethyl-propyl)-pyrrolidine-2-carbonyl]-amino}-3-methoxy-benzoic acid 1-methyl-piperidin-4-ylmethyl ester]	0.024
COc1cc(C(=O)OCCOCCOCCOCCO)ccc1NC(=O)[C@@H]1N[C@@H](CC(C)(C)C)[C@](C#N)(c2ccc(Cl)cc2F)[C@H]1c1cccc(Cl)c1F [Example 57, 4-{[(2R,3S,4R,5S)-4-(4-Chloro-2-fluoro-phenyl)-3-(3-chloro-2-fluoro-phenyl)-4-cyano-5-(2,2-dimethyl-propyl)-pyrrolidine-2-carbonyl]-amino}-3-methoxy-benzoic acid 2-{2-[2-(2-hydroxy-ethoxy)-ethoxy]-ethoxy}-ethyl ester, hydrochloride]	0.0172
CNCC(=O)OCCOC(=O)c1ccc(NC(=O)[C@@H]2N[C@@H](CC(C)(C)C)[C@](C#N)(c3ccc(Cl)cc3F)[C@H]2c2cccc(Cl)c2F)c(OC)c1 [Example 32, 4-{[(2R,3S,4R,5S)-4-(4-Chloro-2-fluoro-phenyl)-3-(3-chloro-2-fluoro-phenyl)-4-cyano-5-(2,2-dimethyl-propyl)-pyrrolidine-2-carbonyl]-amino}-3-methoxy-benzoic acid 2-(2-methylamino-acetoxy)-ethyl ester, hydrochloride]	0.0164
